We go through 4 compounds from article PMC11314410, “Synthesis and Anti-Trypanosoma cruzi Activity of New Pyrazole-Thiadiazole Scaffolds” (Molecules, 2024).

Values joined by “and” are separate entries in the source; they are usually repeats but may differ in a detail not shown here. Identical values can stand only once. Like-named read-outs stand apart in the source and are kept apart here.

One may read the inhibition as how much of the control response was suppressed. For orientation: CC50 means the concentration at which the toxic effect on the cells reaches its halfway point. The melting point is the temperature of the solid-liquid transition. Broadly, the IC90 is the concentration needed for an effect of 90%.

For series [1], the system named is T. cruzi (Dm28c-Luc) intracellular parasites in 3D cardiac spheroids. Kind of series: Antiparasitic activity in T. cruzi-infected 3D cardiac microtissues. The format is cell-based, Trypanosoma cruzi. Conditions: 72 h; for inhibition at 100 µM: Trypanosoma cruzi, read-out: Inhibition of parasite load in 3D cardiac microtissue. The procedure: (§1) Three-dimensional (3D) cardiac cells were obtained as previously described. Briefly, isolated cardiac muscle cells (2.5 × 10^4 cells/well) were seeded in 96-well U-bottom plates coated with agarose (1%) to form cell aggregates. Cardiac microtissue (7 days in culture) was employed to determine cardiotoxicity and drug efficacy in more complex systems. All animal-use procedures were approved by the Animal Care and Use Committee of Instituto Oswaldo Cruz (license L017/2022-A2).
Cardiac spheroids (2.5 × 10^4 cells/well), formed after 7 days of cultivation in a U-bottom plate, were infected for 24 h with trypomastigote forms of T. cruzi (Dm28c-Luc) at a ratio of 20:1 parasite-host cell. After washing, the drugs were added at concentrations of IC90, two times IC90, and 100 µM, respecting the CC20 value of cardiac spheroids as the maximum concentration. Bz was added at 100 µM. Luminescence measurements, which reveal the luciferase activity of the viable parasites, were performed after the addition of D-luciferin substrate (300 µg/mL). The luminescent signal was read in the Glomax reader and the results were represented in arbitrary luminescence units (ALU). The fluorescence microscopy images were also acquired from untreated and drug-treated infected 3D microtissues. Three-dimensional cultures were fixed with 4% paraformaldehyde in PBS and labeled with 4′,6-diamidino-2-phenylindole (DAPI). Images were acquired using a Zeiss Axio Imager M2 fluorescence microscope using Axio vision software (version 4.8).

Series [2] in a line: Cardiac toxicity in 2D cardiac monolayers (CellTiter-Glo, 72 h). Type of series: cell-based, Swiss webster mice. Conditions: Swiss webster, mouse, primary cardiac muscle cell monolayers (2D culture), ATP levels. The procedure: The primary culture of heart muscle cells was obtained from fetuses of Swiss webster mice. The heart was removed and the ventricles were fragmented and subjected to dissociation with trypsin and collagenase type II (Worthington Biochemical Corporation, Lakewood, USA) dissociation solution. Cell monolayers were employed to evaluate drug-induced cardiotoxicity.
(§2) The 2D cardiac cultures (5 × 10^4 cells/well) and 3D cardiac microtissues (2.5 × 10^4 cells/well) were incubated for 72 h at 37 °C with pyrazole-thiadiazole candidates followed by ATP detection by CellTiter-Glo [86]. A minimum of 3 independent assays were performed in duplicate.
For orientation: In ATP-based viability assays light output follows the ATP content of the culture.

Series [3] can be described thus: Cardiac toxicity in 3D cardiac spheroids (CellTiter-Glo, 72 h). The format is cell-based, Swiss webster mice. Conditions: Swiss webster, mouse, 3D cardiac microtissue (cardiac spheroids), ATP levels, read-out: Toxicity CC50 3D Culture. The procedure: as §1, §2
Series [4] can be described thus: Toxicity in mammalian cells (CellTiter Glo, 72 h). Conditions: African green monkey, Vero cells; 72 h, ATP levels; read-out: Cytotoxicity Vero Cells CC50. Type of series: cell-based. The procedure: (§3) Vero cell cultures grown in RPMI 1640 medium containing 10% fetal bovine serum (FBS) were cultured at 37 °C in a humidified atmosphere of 5% CO2 [82]. The cultures were used for drug screening assays and to obtain culture-derived trypomastigotes of T. cruzi.
(§4) Vero cells (1.5 ×10^4 cells/well), cultivated for 24 h at 37 °C in white 96-well plates with clear bottoms, were used to assess the toxicity of the pyrazole-thiadiazole derivatives (series 1 and 2). After washing, the cells were incubated for 72 h at 37 °C with different drug concentrations (500–1.95 μM). Cell viability was measured by adding 20 μL/well of CellTiter Glo reagent (Promega Corporation, Madison, WI, USA). This cell viability kit generates a luminescent signal proportional to the amount of ATP. The luminescence readout was performed using the Glomax Microplate Reader (Promega Corporation, Madison, WI, USA). Thus, the 50% cytotoxicity concentration (CC50), which reduces the cell viability by 50% (CC50), was calculated with Prism GraphPad software (version 8.2.1).

A further series concerns Vero cells. Kind of series: Toxicity in mammalian cells (CellTiter Glo, 72 h). The format is cell-based. The protocol:
as §3, §4

Series [5] concerns Intracellular amastigotes of T. cruzi (Dm28c-Luc). Kind of series: microbe, parasite or virus in culture. The format is cell-based, Trypanosoma cruzi. Conditions: for IC50 / IC90: Trypanosoma cruzi; for IC90: read-out: Anti-T. cruzi Activity Intracellular Amastigotes IC90. The protocol:
(§5) Genetically modified T. cruzi parasites, of clone Dm28c (TcI) expressing the firefly luciferase enzyme gene (Dm28c-Luc), were kindly provided by Dr. Cristina Henriques. T. cruzi Dm28c-Luc was maintained in a Vero cell cultivated in RPMI 1640 medium supplemented with 10% FBS. At 4-day post-infection (dpi), trypomastigotes, released in the cell culture supernatant, were harvested, followed by sedimentation (4000 rpm/20 min/4 °C) and quantification in a Neubauer chamber. Isolated trypomastigotes were used in the phenotypic screening assays as well as the antiparasitic activity in 3D cardiac microtissues, recovery (washout), and drug combination assays.
The activity of pyrazole-thiadiazole derivatives against intracellular amastigotes was evaluated in 24 h-T. cruzi infected Vero cell cultures (1.5 × 10^4 cells/well) at a 10:1 ratio. The cultures were washed and incubated with serial dilutions of the derivatives or Bz (100–0.41 µM). Drug treatment was carried out for 72 h at 37 °C and the parasite viability was determined by luminescence readout after D-Luciferin substrate addition (300 µg/mL). The reading was performed in the Glomax reader. The cell cultures incubated with the culture medium containing dimethylsulphoxide (DMSO; concentration ≤ 1%) were used as the […]. The concentrations required to inhibit parasite viability by 50% (IC50) and 90% (IC90) were calculated using Prism GraphPad software (version 8.2.1). The selectivity index (SI), which measures the window between cytotoxicity (CC50) and anti-T. cruzi activity (IC50), was calculated as CC50/IC50. A minimum of 3 independent assays in duplicate were performed.

The subject of series [6] is T. cruzi (Dm28c-Luc) in Vero cell cultures. Kind of series: Washout (recovery) assay in T. cruzi-infected Vero cell cultures. Type of series: cell-based, Trypanosoma cruzi. Conditions: for ALUmean of parasite load in cell monolayer, washout assay: 10 days treatment + 10 days without drug; for Prevention of reactivation of infection after drug withdrawal: washout assay. The protocol:
The culture medium of the untreated and treated infected cultures was replaced every 3 or 4 days by a fresh medium with or without the pyrazole-thiadiazole derivatives. The presence of free viable parasites in the culture supernatant was monitored at each medium change by adding luciferin (300 µg/mL) followed by readout on a Glomax microplate reader. At the endpoint, culture supernatants and cell monolayers were evaluated for viable parasites. Positive and negative controls were performed using Bz (150 µM) and DMSO (≤1%), respectively. A minimum of 3 independent experimental runs were performed with 12 replicates.

Series [7] relates to Trypomastigotes of T. cruzi (Dm28c-Luc). Kind of series: microbe, parasite or virus in culture. Conditions: for IC50 / IC90: 24 h treatment; for IC50: mean ± SD, read-out: Anti-T. cruzi Activity Trypomastigotes IC50; for IC90: read-out: Anti-T. cruzi Activity Trypomastigotes IC90. The format is cell-based, Trypanosoma cruzi. The procedure: as §5
Drug screening was performed against clinically relevant forms of T. cruzi (amastigotes and trypomastigotes). Trypomastigotes, Dm28c-Luc (1 × 10^6 parasites/well), were added to 96-well plates and incubated with pyrazole-thiadiazole derivatives or Bz (100–0.41 µM). After 24 h of treatment (37 °C), the viability of the parasites was analyzed by adding a D-Luciferin solution (300 µg/mL) and luminescence was measured in the Glomax microplate reader.

Series [8] concerns T. cruzi in 3D cardiac spheroids. Set-up: method as in PMID 33383023. The settings on record: 10 µM; cited from earlier work.
In series [9] the test system is T. cruzi infection of HeLa spheroids. Set-up: method as in PMID 36099853. Conditions: 40 µM pretreatment of HeLa spheroids; cited from earlier work.
[10] abbreviates: Vero, read-out: Intracellular Amastigotes pIC50 (converted).
Setting [11] is: Dm28c-Luc in Vero cells, 72 h treatment, mean ± SD, read-out: Anti-T. cruzi Activity Intracellular Amastigotes IC50.
The mark [12] stands for this setting: Dm28c-Luc in Vero cells, 72 h treatment, mean ± SD.
[13] abbreviates: Trypanosoma cruzi, 24 h, Dm28c-Luc.

Regarding `Nc1nnc(-c2cnn(-c3ccc(Cl)cc3Cl)c2)s1` [1c, 5-Amino-2-(1-(2,4-dichlorophenyl)-1H-pyrazol-4-yl)-1,3,4-thiadiazole], the melting point lay within 284 to 285 °C. In series [1] (100 µM), the “ALUmean (luminescence, parasite load) in 3D cardiac microtissue” value (“ALUmean (luminescence, parasite load)” below) was 17,078 ± 2407 ALU. Besides, in series [1] (100 µM, vs infected untreated), the inhibition at 100 µM was 57%. The compound also registered a CC50 at 72 h in series [2] above 500 µM. The cytotoxic concentration (CC50) at 72 h in series [3] is above 500 µM. The half-maximal cytotoxic concentration (CC50) at 72 h in [4] is above 500 µM. Further, in the series with Vero cells, the “CC20 for Vero cell monolayers” value was above 500 µM. Moreover, the IC50 in [5] (setting [10]) was 13.5 µM. Further, the IC50 in series [5] (setting [11]) came out at 13.5 ± 4.47 µM. Besides, the IC90 in series [5] (setting [12]) was 42.3 ± 3.47 µM. The “ALUmean of parasite load in cell monolayer, washout assay” value (“ALUmean of parasite load” for short) in series [6] (150 µM) is 57,103 ± 15,228 ALU. Also, in series [6] (300 µM), the “ALUmean of parasite load” value is given as 66,378 ± 14,991 ALU. Besides, in series [6] (Trypanosoma cruzi, Vero, 150 µM, 11 dpi, read-out: Inhibition in the release of trypomastigotes), the inhibition at 150 µM turned out to be 52%. Moreover, the inhibition at 300 µM in series [6] (Trypanosoma cruzi, Vero, 300 µM, 11 dpi, read-out: Inhibition in the release of trypomastigotes) came out at 66%. In addition, in series [6], the “Prevention of reactivation of infection after drug withdrawal” value is “trypanostatic action”. Besides, the “Trypomastigotes IC75” value in series [7] (Dm28c-Luc, 24 h) is 54.6 µM and 54.66 µM. In [7] (Dm28c-Luc), the IC50 stood at 21.7 ± 2.94 µM. For the same compound, the IC50 in series [7] (setting [13]) turned out to be 21.7 µM. Besides, the concentration for an effect of 90% (IC90) in [7] (Trypanosoma cruzi, Dm28c-Luc) was above 100 µM.
`Nc1nnc(-c2cnn(-c3ccc([N+](=O)[O-])cc3)c2N)s1` [2k, 5-Amino-2-(5-amino-1-(4-nitrophenyl)-1H-pyrazol-4-yl)-1,3,4-thiadiazole] returned a melting point of 321 to 323 °C. Moreover, the “ALUmean (luminescence, parasite load)” value in [1] (100 µM) is 5366 ± 2348 ALU. Moreover, the inhibition at 100 µM in [1] (100 µM, vs infected untreated) came out at 86%. For the same compound, in series [2], the CC50 at 72 h amounted to 191 ± 21 µM. In addition, the half-maximal cytotoxic concentration (CC50) at 72 h in series [3] was above 500 µM. The CC50 at 72 h in series [4] was above 500 µM. In addition, in the series with Vero cells, the “CC20 for Vero cell monolayers” value is above 500 µM. Also, the IC50 in series [5] (setting [10]) is 10.5 µM. Moreover, in [5] (setting [11]), the IC50 is 10.4 ± 1.21 µM. Besides, the IC90 in series [5] (setting [12]) was 23.2 ± 4.23 µM. Further, in series [6] (150 µM), the “Activity relative to 1c in cell monolayer, washout assay” value stood at 11.8 times and the “ALUmean of parasite load” value was found to be 4845 ± 2419 ALU. In series [6] (300 µM), the “Activity relative to 1c in cell monolayer, washout assay” value was found to be 19.8 times and the “ALUmean of parasite load” value stood at 3349 ± 1767 ALU. In series [6] (300 µM, 14 dpi), the “Reduction of parasite release vs untreated infected group” value turned out to be 93%. Besides, the “Prevention of reactivation of infection after drug withdrawal” value in series [6] is “did not prevent parasite recrudescence”. Also, the “Trypomastigotes SI (CC50 of Vero cells/IC50 of trypomastigotes)” value in series [7] is above 5. Further, the IC50 in [7] (setting [13]) is above 100 µM. In series [7] (Trypanosoma cruzi, Dm28c-Luc), the IC90 was above 100 µM.
As for `O=C(Cn1ccnc1[N+](=O)[O-])NCc1ccccc1` [Bz, benznidazole, reference compound], the “ALUmean (luminescence, parasite load)” value in series [1] (100 µM) is 3520 ± 2198 ALU. Also, in series [1], the inhibition at 100 µM amounted to 91%. For the same compound, the 50% cytotoxic concentration (CC50) at 72 h in [2], in [3] and in series [4] was above 500 µM throughout. Moreover, in series [8], the “Reduction of parasite load” value is recorded as 92%. For the same compound, the “Intracellular Amastigotes SI (CC50 of Vero cells/IC50 of intracellular amastigotes)” value in series [5] is above 158.23. In addition, the IC50 in series [5] (setting [10]) is 3.63 µM; in series [5] (setting [11]), 3.61 ± 1.25 µM; in [7] (Trypanosoma cruzi, Dm28c-Luc) it was 12.8 ± 2.66 µM. Further, the 90% effect concentration (IC90) in [5] (setting [12]) was 11.5 ± 4.17 µM; in series [7] (Trypanosoma cruzi, Dm28c-Luc), above 100 µM. For the same compound, the “ALUmean of parasite load” value in [6] (150 µM) is 3426 ± 1727 ALU. The inhibition at 150 µM in series [6] (Trypanosoma cruzi, Vero, read-out: Inhibition in the release of trypomastigotes) was determined as 77%; in series [6] (Trypanosoma cruzi, Vero, read-out: Inhibition of parasite release), 82%. Further, the “Trypomastigotes SI (CC50 of Vero cells/IC50 of trypomastigotes)” value in series [7] is above 38.88.
As for `Oc1ccc(/C=C/c2cc(O)cc(O)c2)cc1` [resveratrol], the “Reduction of T. cruzi infection level” value in series [9] is 50%.
